{
  "source": "patent US5674432A",
  "about": "“Photochromic naphthopyran compounds” (Transitions Optical, Inc., priority 1995, dated 1997)",
  "key": {"[1]": {"assay": "photochromic response on an optical bench (sensitivity, saturation optical density, bleach rate) of imbibed test squares", "assay_type": "physicochemical", "details": "for OD @ SATURATION: UV exposure continued for 20 minutes; for OD @ SATURATION / Δ OD/Min SENSITIVITY: 75° F. (23.9° C.); for Δ OD/Min SENSITIVITY: first five (5) seconds of UV exposure, expressed per minute; for BLEACH RATE T1/2: time for absorbance of activated form to reach one half the highest absorbance at room temperature (75° F., 23.9° C.) after removal of activating light", "procedure": "Testing was done with selected photochromic naphthopyrans imbibed into test square polymerizates by a thermal transfer process. The test square polymerizates were prepared from a homopolymer of diethylene glycol bis(allyl carbonate) and measured 1/8 inch (0.3 centimeters)×2 inches (5.1 centimeters)×2 inches (5.1 centimeters). The test squares were imbibed by the following procedure. Each naphthopyran was dissolved .into toluene to form a 4 weight percent solution of the compound. A piece of No.4 Whatman filter paper was saturated with the naphthopyran toluene solution and allowed to air dry. The dried filter paper was placed on one side of the test square. A piece of untreated filter paper was placed on the other side of the polymeric test square and the resulting sandwich was placed between two flat aluminum metal plates. […] After cooling, each test square was washed with acetone.\nThe photochromic test squares of Part B were tested for photochromic response rates on an optical bench.\n(§1) The optical bench comprises a 150 watt Xenon arc lamp, a tungsten lamp, power supplies for both lamps, condensing lenses as needed to maintain collimated light beams from both lamps, a remote controlled shutter, a copper sulfate bath acting as a heat sink for the arc lamp, a Schott WG-320 nm cut-off filter which removes short wavelength radiation, neutral density filter(s), a sample holder in which the sample to be tested is inserted, a photopic filter, light detector, and radiometer assembly, a strip chart recorder, and a means for maintaining the alignment of the aforestated components during testing.\nChange in optical density (ΔOD) of a sample was determined by inserting a photochromic test sample in the bleached state into the sample holder, adjusting the transmittance scale to 100%, opening the shutter from the Xenon lamp to provide ultraviolet radiation to change the sample from the bleached state to an activated (darkened) state, measuring the transmittance through the sample. The transmittance was measured by directing a beam of light from the tungsten lamp at a small angle normal to the surface of the sample, through the sample, and to a photopic filter, light detector and radiometer assembly. The photopic filter passes wavelengths such that the detector mimics the response of the human eye and produces output signals that are processed by the radiometer. The change in optical density was calculated according to the formula ΔOD=log(100/% Ta) where % Ta is the percent transmittance in the activated state and the logarithm is to the base 10.\n(§2) The ΔOD/Min, which represents the sensitivity of the photochromic compound's response to UV light, was measured over the first five (5) seconds of UV exposure, then expressed on a per minute basis. The saturation optical density (OD) was taken under identical conditions as the ΔOD/Min, except UV exposure was continued for 20 minutes. The lambda max (VIS) reported in Table 2 is the wavelength in the visible spectrum at which the maximum absorption of the activated (colored) form of the photochromic compound in a homopolymer of diethylene glycol bis(allyl carbonate) occurs."}, "[2]": {"assay": "lambda max (UV) in diethylene glycol dimethyl ether solution by UV spectrophotometer", "assay_type": "physicochemical", "parameters": "unit not given here", "details": "approximately 0.5 milligram per milliliter, wavelength in the ultraviolet range closest to the visible spectrum", "procedure": "The compounds of the Examples and the Comparative Examples were dissolved in diethylene glycol dimethyl ether. The concentrations of the resulting solutions were approximately 0.5 milligram per milliliter. Each solution was tested in a UV spectrophotometer to determine the lambda max (U/V). The lambda max (UV) reported in Table 1 for each of the Examples is the wavelength in the ultraviolet range closest to the visible spectrum."}, "[3]": {"details": "cited from earlier work"}, "[4]": {"assay": "lambda max (VIS) of the activated (colored) form in a homopolymer of diethylene glycol bis(allyl carbonate)", "assay_type": "physicochemical", "procedure": "Testing was done with selected photochromic naphthopyrans imbibed into test square polymerizates by a thermal transfer process. The test square polymerizates were prepared from a homopolymer of diethylene glycol bis(allyl carbonate) and measured 1/8 inch (0.3 centimeters)×2 inches (5.1 centimeters)×2 inches (5.1 centimeters). The test squares were imbibed by the following procedure. Each naphthopyran was dissolved .into toluene to form a 4 weight percent solution of the compound. A piece of No.4 Whatman filter paper was saturated with the naphthopyran toluene solution and allowed to air dry. The dried filter paper was placed on one side of the test square. A piece of untreated filter paper was placed on the other side of the polymeric test square and the resulting sandwich was placed between two flat aluminum metal plates. The entire assembly was then placed in an oven kept at 135° to 155° C. for a time sufficient to thermally transfer the naphthopyran into the polymeric test square. After cooling, each test square was washed with acetone.\nThe photochromic test squares of Part B were tested for photochromic response rates on an optical bench. Prior to testing on the optical bench, the photochromic test squares were exposed to 365 nanometer ultraviolet light for about 15 minutes to activate the photochromic compounds and then placed into a 76° C. oven for about 15 minutes to bleach or inactivate the photochromic compounds. The test squares were then cooled to room temperature, exposed to fluorescent room lighting for at least 2 hours and then kept covered for at least 2 hours prior to testing on an optical bench maintained at 75° F. (23.9° C.).\nas §1\nas §2, with “occurs. The bleach rate (T 1/2) is the time interval in seconds for the absorbance of the activated form of the naphthopyran in the test squares to reach one half the highest absorbance at room temperature (75° F., 23.9° C.) after removal of the source of activating light.” for “occurs.”"}, "[5]": {"details": "vs 3,3-diphenyl-3H-naphtho[2,1-b]pyran and 5-, 7- or 9-methoxy compounds, U.S. Pat. No. 5,238,981"}},
  "data": [
    {"smiles": "C1=CC(c2ccccc2)(c2ccccc2)Oc2ccc3ccccc3c21", "note": "[Comparative Example 1, 3,3-diphenyl-3H-naphtho[2,1-b]pyran, reference compound]", "values": [
      {"measurement": "OD @ SATURATION", "setting": "[1]", "result": 0.36},
      {"measurement": "Δ OD/Min SENSITIVITY", "setting": "[1]", "result": "0.87 Δ OD/Min"},
      {"measurement": "BLEACH RATE T1/2", "setting": "[1]", "result": 0.75, "unit": "min"},
      {"measurement": "Lambda max (UV)", "setting": "[2]", "result": 359},
      {"measurement": "optical density at saturation", "setting": "[3]; at room temperature and above", "result": "too low for use in optical applications"},
      {"measurement": "optical density change on exposure to ultraviolet light", "setting": "[3]; at room temperature and above", "result": "changes too slowly"},
      {"measurement": "sensitivity on exposure to ultraviolet light", "setting": "[3]; at room temperature and above", "result": "low"},
      {"measurement": "LAMBDA MAX (VIS)", "setting": "[4]", "result": 430, "unit": "nm"}
    ]},
    {"smiles": "COc1ccc2c3c(ccc2c1)OC(c1ccccc1)(c1ccccc1)C=C3", "note": "[Comparative Example 2, 3,3-diphenyl-8-methoxy-3H-naphtho[2,1-b]pyran, reference compound]", "values": [
      {"measurement": "OD @ SATURATION", "setting": "[1]", "result": 0.73},
      {"measurement": "Δ OD/Min SENSITIVITY", "setting": "[1]", "result": "1.25 Δ OD/Min"},
      {"measurement": "BLEACH RATE T1/2", "setting": "[1]", "result": 1.45, "unit": "min"},
      {"measurement": "Lambda max (UV)", "setting": "[2]", "result": 376},
      {"measurement": "lambda max (UV), in words", "setting": "[3]; near visible threshold range about 390 to 410 nanometers, U.S. Pat. No. 5,238,981", "result": "shifted towards the near visible threshold range"},
      {"measurement": "optical density at saturation, comparison in words", "setting": "[3]; [5]", "result": "enhanced sensitivity and optical density at saturation"},
      {"measurement": "sensitivity, comparison in words", "setting": "[3]; [5]", "result": "enhanced sensitivity"},
      {"measurement": "LAMBDA MAX (VIS)", "setting": "[4]", "result": 473, "unit": "nm"}
    ]},
    {"smiles": "Cc1cccc(C2(c3ccccc3)C=Cc3c(ccc4c5c(ccc34)OC(C)C5)O2)c1", "note": "(stereo not drawn) [Example 1, 7-(phenyl)-7-(3-methylphenyl)-7H-2-methyl-2,3-dihydrofuro[3',2',:5,6]naphtho[2,1-b]pyran]", "values": [
      {"measurement": "Lambda max (UV)", "setting": "[2]", "result": 394}
    ]},
    {"smiles": "CC1Cc2c(ccc3c4c(ccc23)OC(c2ccccc2)(c2ccccc2)C=C4)O1", "note": "(stereo not drawn) [Example 2, 7,7-diphenyl-7H-2-methyl-2,3-dihydrofuro[3',2',:5,6]naphtho[2,1-b]pyran]", "values": [
      {"measurement": "OD @ SATURATION", "setting": "[1]", "result": 0.66},
      {"measurement": "Δ OD/Min SENSITIVITY", "setting": "[1]", "result": "1.35 Δ OD/Min"},
      {"measurement": "BLEACH RATE T1/2", "setting": "[1]", "result": 1.77, "unit": "min"},
      {"measurement": "Lambda max (UV)", "setting": "[2]", "result": 394},
      {"measurement": "LAMBDA MAX (VIS)", "setting": "[4]", "result": 488, "unit": "nm"}
    ]},
    {"smiles": "CC1Cc2c(ccc3c4c(ccc23)OC(c2ccccc2)(c2cccc(C(F)(F)F)c2)C=C4)O1", "note": "(stereo not drawn) [Example 3, 7-(phenyl)-7-(3-trifluoromethylphenyl)-7H-2-methyl-2,3-dihydrofuro[3',2',:5,6]naphtho[2,1-b]pyran]", "values": [
      {"measurement": "OD @ SATURATION", "setting": "[1]", "result": 0.74},
      {"measurement": "Δ OD/Min SENSITIVITY", "setting": "[1]", "result": "1.38 Δ OD/Min"},
      {"measurement": "BLEACH RATE T1/2", "setting": "[1]", "result": 2.18, "unit": "min"},
      {"measurement": "Lambda max (UV)", "setting": "[2]", "result": 396},
      {"measurement": "LAMBDA MAX (VIS)", "setting": "[4]", "result": 494, "unit": "nm"}
    ]},
    {"smiles": "CC1Cc2c(ccc3c4c(ccc23)OC(c2ccccc2)(c2cccc(F)c2)C=C4)O1", "note": "(stereo not drawn) [Example 4, 7-(phenyl)-7-(3-fluorophenyl)-7H-2-methyl-2,3-dihydrofuro[3',2',:5,6]naphtho[2,1-b]pyran]", "values": [
      {"measurement": "OD @ SATURATION", "setting": "[1]", "result": 0.76},
      {"measurement": "Δ OD/Min SENSITIVITY", "setting": "[1]", "result": "1.44 Δ OD/Min"},
      {"measurement": "BLEACH RATE T1/2", "setting": "[1]", "result": 1.82, "unit": "min"},
      {"measurement": "Lambda max (UV)", "setting": "[2]", "result": 394},
      {"measurement": "LAMBDA MAX (VIS)", "setting": "[4]", "result": 489, "unit": "nm"}
    ]},
    {"smiles": "COc1cccc(C2(c3ccccc3)C=Cc3c(ccc4c5c(ccc34)OC(C)C5)O2)c1", "note": "(stereo not drawn) [Example 5, 7-(phenyl)-7-(3-methoxyphenyl)-7H-2-methyl-2,3-dihydrofuro[3',2',:5,6]naphtho[2,1-b]pyran]", "values": [
      {"measurement": "OD @ SATURATION", "setting": "[1]", "result": 0.74},
      {"measurement": "Δ OD/Min SENSITIVITY", "setting": "[1]", "result": "1.43 Δ OD/Min"},
      {"measurement": "BLEACH RATE T1/2", "setting": "[1]", "result": 2.75, "unit": "min"},
      {"measurement": "Lambda max (UV)", "setting": "[2]", "result": 395},
      {"measurement": "LAMBDA MAX (VIS)", "setting": "[4]", "result": 495, "unit": "nm"}
    ]},
    {"smiles": "COc1ccc(C2(c3ccccc3F)C=Cc3c(ccc4c5c(ccc34)OC(C)C5)O2)cc1", "note": "(stereo not drawn) [Example 6, 7-(2-fluorophenyl)-7-(4-methoxyphenyl)-7H-2-methyl-2,3-dihydrofuro[3',2',:5,6]naphtho[2,1-b]pyran]", "values": [
      {"measurement": "Lambda max (UV)", "setting": "[2]", "result": 393}
    ]},
    {"smiles": "Cc1coc2ccc3c4c(ccc3c12)OC(c1ccccc1)(c1ccccc1)C=C4", "note": "[Example 7, 7,7-diphenyl-7H-3-methylfuro[3',2',:5,6]naphtho[2,1-b]pyran]", "values": [
      {"measurement": "Lambda max (UV)", "setting": "[2]", "result": 372}
    ]},
    {"smiles": "C1=CC(c2ccccc2)(c2ccccc2)Oc2ccc3c4c(ccc3c21)OCCC4", "note": "[Example 8, 9,9-diphenyl-3H,9H-1,2-dihydronaphtho[2,1-b:6,5-b']dipyran]", "values": [
      {"measurement": "Lambda max (UV)", "setting": "[2]", "result": 382}
    ]},
    {"smiles": "COc1ccc(C2(c3ccc(OC)cc3OC)C=Cc3c(ccc4c3ccc3oc(=O)cc(C)c34)O2)cc1", "note": "(stereo not drawn) [Example 9, 9-(2,4-dimethoxyphenyl)-9-(4'-methoxyphenyl)-1-methyl-3H,9H-naphtho[2,1-b:6,5-b']dipyran-3-one]", "values": [
      {"measurement": "Lambda max (UV)", "setting": "[2]", "result": 396}
    ]},
    {"smiles": "COc1ccc(C2(c3ccc(OC)cc3OC)C=Cc3c(ccc4c3ccc3oc(C)cc(=O)c34)O2)cc1", "note": "(stereo not drawn) [Example 10, 9-(2,4-dimethoxyphenyl)-9-(4'-methoxyphenyl)-3-methyl-1H,9H-naphtho[2,1-b:6,5-b']dipyran-1-one]", "values": [
      {"measurement": "Lambda max (UV)", "setting": "[2]", "result": 384}
    ]}
  ]
}
